Assay results taken from patent US11426367B2, “Methods of treating substance abuse” (Perception Neuroscience, Inc., priority 2018, dated 2022).

What was measured:
Morphine Seizures = conditions: Not blocked by naloxone; Kolesnikov et al., 1997; cited from earlier work
DEX-treated mice = assay: Forced swimming test (FST), neonatal dexamethasone exposure model of depression; format: in vivo; conditions: juvenile DEX-treated mice, 10 mg/kg i.p. single injection
Method: A new animal model of depression was prepared by exposing mice neonatally to dexamethasone (hereinafter abbreviated as DEX). […] The mouse model was prepared and reported only recently by the inventors of the present application and their collaborators (Non Patent Literature 18). […] Further, alterations were found in levels of amino acids (glutamate, glutamine, glycine, D-serine, and L-serine) in mouse brains after the neonatal DEX exposure (Non Patent Literature 18). Those amino acids are known to be associated with NMDA receptor mediated neurotransmission. Thus, it is conceivable that alterations in glutamatergic transmission via the NMDA receptor after the neonatal DEX exposure may be involved in the depression-like behavior in the juvenile mice and the adult mice (Non Patent Literature 18).
The preparation of the animal model of depression and the administration of the agent were specifically performed as described below (FIG. 2A). Male and female ICR mice (9-week-old, Japan SLC, Inc., Hamamatsu, Japan) were used. The mice were given free access to water and feed. A breeding procedure consisted of housing three to four females with one male, for 14 days. On the final day of this period, the females were placed in isolation and checked daily around the expected delivery day. The day of birth was defined as day 0. The mice were injected intraperitoneally with DEX (Wako Pure Chemical Industries, Ltd., Tokyo, Japan) dissolved in saline on day 1, day 2, and day 3 at doses of 0.5 mg/kg body weight, 0.3 mg/kg body weight, and 0.1 mg/kg body weight, respectively. In addition, normal controls were injected with equal volumes (10 ml/kg) of saline.
The antidepressant effects of the agent were investigated for juvenile mice by behavioral tests such as the TST, the PST, the LMT, and a 1% sucrose preference test (SPT) (FIG. 2A). The TST and the PST were performed twice, i.e., the day (27 hours and 29 hours, respectively) and 7 days after the injection of ketamine, and the LMT and the SPT were performed on the day and 2 days after the injection of ketamine. The TST was performed as described below. First, the mice were taken out from cages, and then a small piece of an adhesive tape was bonded onto a portion approximately 2 cm away from the tip of the tail of the mice. […] The immobility time of each mouse was recorded for 10 minutes. […] The immobility time was calculated as a value obtained by subtracting active time from total time, using the analysis software of the apparatus. Cumulative immobility time was recorded over 6 minutes during a test period. […] The locomotor activity of the mice was counted with SCANET MV-40, and the cumulative exercise of the mice was recorded for 60 minutes. […]

[1] = tested on: morphine withdrawal signs in rats; assay: Naloxone-precipitated withdrawal from subchronic morphine; format: in vivo; conditions: 10 and 20 mg/kg i.p. before naloxone 1 mg/kg SC, morphine 10 mg/kg SC b.i.d.
Method: Forty (40) male Wistar rats served as test subjects in this study. Animals were pair housed with unrestricted access to rodent chow and water (SOP ROD.03.01, SOP ROD.04.01, SOP ROD.18). […] All experimental activity occurring during the animals' light cycle. All animal use procedures were performed in accordance with the principles of the Canadian Council on Animal Care (CCAC).
Forty (40) male Wistar rats were assigned to 5 groups of N=8 rats per group. Group A was dosed with saline vehicle (Sal; subcutaneous (SC) route) twice daily (approx. 08:00±1 h and 18:00±1 h) for 12 days. […] This treatment regimen was designed to induce opioid dependence (Erami et al., 2012). […] On days 9 and 12, rats were tested for naloxone precipitated withdrawal. According to a cross-over design (see Table 4: Treatment Groups), all rats in each group received either acute saline, or naloxone hydrochloride (1 mg/kg; dose volume 2 ml/kg) injection by the SC route, 5 minutes prior to behavioral testing. […] Lofexidine doses are based on literature values (e.g. Shearman et al., 1979). Immediately after vehicle or naloxone injection, rats were transferred to activity chambers for 30 minutes where the animals were visually assessed for somatic signs associated with opioid withdrawal (e.g. writhes, chews, ptosis, WDS, shakes, tremor, penile grooming, body weight change; see Higgins and Sellers, 1994). Simultaneously, the activity pattern (distance travelled, rearing) of each rat was automatically recorded.
Locomotor activity. Spontaneous activity in the rats was measured with the automated Med Associates activity test chamber for 30 minutes with 10-minute time bins. The tracking arena was 17″W×17″L×12″H, sensor bars are secured 1″ above the floor to track distance travelled, and a second set of sensor bars are placed ˜5″ above the floor to measure vertical movement and rearing activity. The parameters set on the tracking software were as follows: resolution—50 milliseconds (ms), box size—4 beams, resting delay—500 ms, and ambulatory trigger—2 (SOP ROD.25). […]

[2] = tested on: tolerance to effects of ethanol; assay: Tolerance to ethanol, grip strength; conditions: for tolerance to the effect of ethanol on grip strength/body weight (motor-impairment): rats, 3 mg/kg given with ethanol (2.3 and 1.7) on day 1, tested day 2, 30 min post ethanol, 3 mg/kg
patients with depression = conditions: cited from earlier work
Chronic pain patients = conditions: chronic pain patients after i.v. R,S-ketamine; Persson et al., 1998; cited from earlier work

| Compound | Morphine Seizures, dose (Morphine Seizures) [mg/kg] | immobility time in the FST (DEX-treated mice; 29 hours after injection) | immobility time in the FST (DEX-treated mice; 7 days after injection) | overall morphine withdrawal scores (naloxone-precipitated withdrawal signs) [1] | overall morphine withdrawal scores (naloxone-precipitated withdrawal signs) ([1]; listed as R-ketamine) | Ethanol Tolerance, dose blocking development of tolerance ([2]; grip strength, Present study) | tolerance to the effect of ethanol on grip strength/body weight (motor-impairment) [2] | tolerance to the effect of ethanol on grip strength/body weight (motor-impairment) ([2]; listed as R-ketamine) | antidepressant effects compared with RS(+/−)-ketamine (0.5 mg/kg, i.v.) (patients with depression; 0.25 mg/kg i.v., treatment-resistant patients with MDD, case report, Non Patent Literature 14) | effective oral doses in patients with depression (patients with depression; oral, Non Patent Literatures 15 and 16) [mg/kg] | Plasma levels of S analyzed (Chronic pain patients) |
| --- | --- | --- | --- | --- | --- | --- | --- | --- | --- | --- | --- |
| CN[C@@]1(c2ccccc2Cl)CCCCC1=O.Cl [R(−)-ketamine] | 0.3 | markedly reduced the immobility time | significantly reduced the immobility time | dose-dependently attenuated overall morphine withdrawal scores | significantly attenuated the naloxone-induced withdrawal signs | 3 - grip strength mg/kg | tolerance was significantly diminished | blocked | – | – | – |
| CN[C@]1(c2ccccc2Cl)CCCCC1=O [S(+)-ketamine] | 0.03 | markedly reduced the immobility time | did not reduce the immobility time | – | – | – | – | – | weaker | 1.25 | Plasma levels of S analyzed (50-400 ng/ml) |
